Tests used:
P. aeruginosa ATCC 27853 = experiment: Agar diffusion method, P. aeruginosa; format: cell-based, Pseudomonas aeruginosa; details: Pseudomonas aeruginosa, ATCC27853, 100 µg/well; read-out: Diameter of Zone Inhibition, P. aeruginosa
Experimental: (§1) Elyakov Pacific Institute of Bioorganic Chemistry, Far East Branch, Russian Academy of Sciences. Test substances were dissolved in DMSO at concentrations of 1.0, 0.1, and 0.01 mg/mL. All strains were grown on trypticase-soy agar TSA (BBL) at 37 °C. […] After incubation of the dishes at 37 °C for 24 h (for bacteria) and 48 h (for the fungus) at 28 °C, the diameters of the growth inhibition zones of pathogenic microorganisms (mm) were measured, including the diameter of the wells. Commercial antibacterial drugs (vancomicin and gentamicin) and antifungal (clotrimazol) drugs were used as positive controls.

[1] = test system: human cervical cancer (HeLa); experiment: Cytotoxicity, MTT assay, HeLa cells; details: for EC50: Homo sapiens, HeLa, 24 h, read-out: Cytotoxicity (EC50), HeLa; for Selectivity Index (SI), HeLa: SI = EC50 (Jb6 Cl 41-5a normal cells)/EC50 (tumor cells)
S. aureus ATCC 21027 = experiment: Agar diffusion method, S. aureus; format: cell-based, Staphylococcus aureus; details: Staphylococcus aureus, ATCC21027, 24 h, 100 µg/well, 24 h, incl. 7 mm well; read-out: Diameter of Zone Inhibition, S. aureus
Experimental: as §1

[2] = test system: mouse neuroblastoma (Neuro 2a); experiment: Cytotoxicity, MTT assay, Neuro 2a cells; details: for EC50: N2a, 24 h, read-out: Cytotoxicity (EC50), Neuro 2a; for Selectivity Index (SI), Neuro-2a: SI = EC50 (Jb6 Cl 41-5a normal cells)/EC50 (tumor cells)
B. cereus ATCC 10702 = experiment: Agar diffusion method, B. cereus; format: cell-based, Bacillus cereus; details: Bacillus cereus, ATCC10702, 24 h, 100 µg/well, 24 h, incl. 7 mm well; read-out: Diameter of Zone Inhibition, B. cereus
Experimental: as §1

C. albicans KMM 453 = experiment: Agar diffusion method, C. albicans; format: cell-based; details: Candida albicans, KMM453, 48 h, 100 µg/well, 48 h at 28 °C; read-out: Diameter of Zone Inhibition, C. albicans
Experimental: as §1

[3] = Cytotoxicity, MTT assay, Jb6 Cl 41-5a normal epithelial cells; details: mouse, Jb6 Cl 41-5a normal epithelial cells
E. coli K-12 = experiment: Agar diffusion method, E. coli; format: cell-based, Escherichia coli; details: 100 µg/well; for zone of inhibition at 100 µg/disc: Escherichia coli, K12, read-out: Diameter of Zone Inhibition, E. coli
Experimental: as §1

[4] = test system: mouse ascites Ehrlich carcinoma; experiment: Cytotoxicity, nonspecific esterase (FDA) assay, ascites Ehrlich carcinoma cells; details: for EC50: Mus musculus, Ehrlich, 24 h, read-out: Cytotoxicity (EC50), Ascites Ehrlich Carcinoma; for Selectivity Index (SI), Ascitic Ehrlich Carcinoma: SI = EC50 (Jb6 Cl 41-5a normal cells)/EC50 (tumor cells)

For COc1c(Cl)c(Cl)c(OC)c2c1C(=O)C1=C(S[C@@H]3O[C@H](CO)[C@H](O)[C@H](O)[C@H]3O1)C2=O [Compound 18b, (2R,3R,4S,4aR,12aS)-8,9-Dichloro-3,4-dihydroxy-2-(hydroxymethyl)-7,10-dimethoxy-3,4,4a,12a-tetrahydro-2H-naphtho[2,3-b]pyrano[2,3-e][2,5]oxathiine-6,11-dione], the zone of inhibition at 100 µg/disc (P. aeruginosa ATCC 27853) was 0 mm, the EC50 [1] was 8 µM and the “Selectivity Index (SI), HeLa” value [1] was 0.4. For the same molecule, the zone of inhibition at 100 µg/disc (S. aureus ATCC 21027) was 0 mm, the EC50 [2] was 2.9 µM and the “Selectivity Index (SI), Neuro-2a” value [2] was 1. It also gave a zone of inhibition at 100 µg/disc (B. cereus ATCC 10702) of 0 mm, a zone of inhibition at 100 µg/disc (C. albicans KMM 453) of 0 mm and an EC50 at 24 h [3] of 2.9 µM. The zone of inhibition at 100 µg/disc (E. coli K-12) was 0 mm, the EC50 [4] was 1.1 µM and the “Selectivity Index (SI), Ascitic Ehrlich Carcinoma” value [4] was 2.6. It also gave a melting point of 276 to 279 °C.

In the case of COc1c(Cl)c(Cl)c(OC)c2c1C(=O)C1=C(S[C@@H]3OC[C@@H](O)[C@H](O)[C@H]3O1)C2=O [Compound 18c, (3R,4S,4aR,12aS)-8,9-Dichloro-3,4-dihydroxy-7,10-dimethoxy-3,4,4a,12a-tetrahydro-2H-naphtho[2,3-b]pyrano[2,3-e][2,5]oxathiine-6,11-dione], the zone of inhibition at 100 µg/disc (P. aeruginosa ATCC 27853) is reported as 0 mm, the EC50 [1] is reported as 10.1 µM and the “Selectivity Index (SI), HeLa” value [1] is reported as 0.4. For the same molecule, the zone of inhibition at 100 µg/disc (S. aureus ATCC 21027) was under 20 mm, the EC50 [2] was 4.1 µM and the “Selectivity Index (SI), Neuro-2a” value [2] was 0.9. It also gave a zone of inhibition at 100 µg/disc (B. cereus ATCC 10702) of under 20 mm, a zone of inhibition at 100 µg/disc (C. albicans KMM 453) of 0 mm and an EC50 at 24 h [3] of 3.8 µM. The “Diameter of Zone Inhibition, E. coli” value (E. coli K-12) was “not active”, the zone of inhibition at 100 µg/disc (E. coli K-12) was 0 mm and the EC50 [4] was 4.5 µM. The “Selectivity Index (SI), Ascitic Ehrlich Carcinoma” value [4] was 0.8 and the melting point was 277 to 279 °C.

In the case of COc1c(Cl)c(Cl)c(OC)c2c1C(=O)C1=C(S[C@@H]3OC[C@H](O)[C@H](O)[C@H]3O1)C2=O [Compound 18d, (3S,4S,4aR,12aS)-8,9-Dichloro-3,4-dihydroxy-7,10-dimethoxy-3,4,4a,12a-tetrahydro-2H-naphtho[2,3-b]pyrano[2,3-e][2,5]oxathiine-6,11-dione], the zone of inhibition at 100 µg/disc (P. aeruginosa ATCC 27853) is reported as 0 mm, the EC50 [1] is reported as 8.7 µM and the “Selectivity Index (SI), HeLa” value [1] is reported as 0.5. For the same molecule, the zone of inhibition at 100 µg/disc (S. aureus ATCC 21027) was under 20 mm, the EC50 [2] was 2.8 µM and the “Selectivity Index (SI), Neuro-2a” value [2] was 1.5. The zone of inhibition at 100 µg/disc (B. cereus ATCC 10702) was under 20 mm, the zone of inhibition at 100 µg/disc (C. albicans KMM 453) was 0 mm and the EC50 at 24 h [3] was 4.3 µM. For the same molecule, the “Diameter of Zone Inhibition, E. coli” value (E. coli K-12) was “not active”, the zone of inhibition at 100 µg/disc (E. coli K-12) was 0 mm and the EC50 [4] was 4.1 µM. For the same molecule, the “Selectivity Index (SI), Ascitic Ehrlich Carcinoma” value [4] was 1 and the melting point was 286 to 289 °C.

From paper PMC7463537, “Synthesis and Evaluation of Antimicrobial and Cytotoxic Activity of Oxathiine-Fused Quinone-Thioglucoside Conjugates of Substituted 1,4-Naphthoquinones” (Molecules, 2020)
